According to EP0466251A1, “Elfamycin-resistant mutants” (priority 1990, dated 1992):
Values after ≈ are worked out from the molar mass of the structure shown.

Experiments:
SrEF-Tu mutant A378T = biological target: T1, SrEF-Tu mutant A378T (Streptomyces ramocissimus, UniProt P29542, A379T); experiment: in vitro poly(U) directed poly(phe) synthesis; type: biochemical, S. ramocissimus
T1 construct: made in house; host or cells: E. coli PM1455
Protocol: (§1) The sensitivity of SrEF-Tu mutants A378V and A378T to elfamycin was tested by in vitro studies. Both parent and mutant S. ramocissimus EF-Tu, after transformation of the respective cloned genes, were expressed in an E. coli strain encoding an elfamycin resistant EF-Tu. Cell-free extracts of these transformants were subsequently tested for elfamycin sensitivity of the translation apparatus, using a variation on the procedure described by C. Glöckner and H. Wolf (cited above). […] The parent SrEF-Tu reached 50% residual activity already at 1.6 mg/l. […]
(§2) Plasmids pUSrT1-1, pUSrT1V-1 and pUSrT1T-1 were transformed to E. coli PM1455 (tufA, tufB::Mu, rpoB, recA56; P. van der Meide et al., Eur. J. Biochem. 130 (1983) 409-417); this strain has only one active tuf gene, which encodes an elfamycin resistant EF-Tu. […] The first 4 fractions having absorbance at 260 nm were pooled. […]
(§3) At 0°C an incubation mixture was prepared consisting of 40 mM Tris-acetate pH 7.6, 10 mM Mg-acetate, 60 mM NH₄Cl, 5 mM β-mercaptoethanol, 1 mM ATP, 0.025 mM GTP, 2.5 mM phosphoenolpyruvate, 0.25 µg/ml pyruvate kinase, 0.8 mg/ml tRNA, 0.1 mg/ml poly(U), 95 µM phenylalanine, and 3 µCi/ml ³H-phenylalanine (57 Ci/mmol). […] Incorporation of ³H-phenylalanine was analyzed in a liquid scintillation counter. […]

S. ramocissimus R1V [1] = experiment: growth of plated mycelium, minimal inhibitory concentration; type: cell-based; details: mycelium pregrown in YMG medium without mocimycin; 1 ml of a 16 hrs culture plated
From the text: (§4) Essentially identical results were obtained when for each of the strains spores were substituted by mycelium, pregrown in YMG medium without mocimycin.

[2] = system: S. ramocissimus CBS 190.69; experiment: as above; type: cell-based; details: mycelium pregrown in YMG medium without mocimycin; 1 ml of a 16 hrs culture plated
From the text: as §4

[3] = biological target: T2, parent SrEF-Tu from S. ramocissimus CBS 190.69 (Streptomyces ramocissimus, UniProt P29542); experiment: in vitro poly(U) directed poly(phe) synthesis; type: biochemical
T2 construct: made in house; host or cells: E. coli PM1455
Protocol: as §1, §2, §3

SrEF-Tu mutant A378V = biological target: T3, SrEF-Tu mutant A378V (Streptomyces ramocissimus, UniProt P29542, A379V); experiment: in vitro poly(U) directed poly(phe) synthesis; type: biochemical, S. ramocissimus
T3 construct: made in house; host or cells: E. coli PM1455
Protocol: as §1, §2, §3

S. ramocissimus R1V [4] = experiment: germination and growth of spores on solid medium (HI-agar); type: cell-based; parameters: key to Germination and growth of spores: +++ = good growth; ++ = slow growth; + = very slow growth; - = no growth
Protocol: (§5) Similar results were obtained on solid medium (HI-agar, Difco) containing 0 to 1 g/l mocimycin; spores from S. ramocissimus R1V and S. ramocissimus CBS 190.69 were diluted such that approximately 200 colony forming units were applied to each agar plate. Incubation of the plates was at 30°C for 5 days. For the control strain S. ramocissimus CBS 190.69 no colonies appeared above 0.1 g/l mocimycin; on the contrary, spores of S. ramocissimus strain R1V quantitatively were able to germinate and form colonies at least up to 0.75 g/l.

[5] = system: S. ramocissimus CBS 190.69; experiment: as above; type: cell-based; parameters: key to Germination and growth of spores: +++ = good growth; ++ = slow growth; + = very slow growth; - = no growth
Protocol: as §5

[6] = 16 mg/l mocimycin, period of 40 minutes
[7] = S-30 extract of E. coli PM1455 transformant, reaction time 10 minutes
[8] = approximately 200 colony forming units per plate, 30°C for 5 days

T1 sequence (P29542 whole entry A379T): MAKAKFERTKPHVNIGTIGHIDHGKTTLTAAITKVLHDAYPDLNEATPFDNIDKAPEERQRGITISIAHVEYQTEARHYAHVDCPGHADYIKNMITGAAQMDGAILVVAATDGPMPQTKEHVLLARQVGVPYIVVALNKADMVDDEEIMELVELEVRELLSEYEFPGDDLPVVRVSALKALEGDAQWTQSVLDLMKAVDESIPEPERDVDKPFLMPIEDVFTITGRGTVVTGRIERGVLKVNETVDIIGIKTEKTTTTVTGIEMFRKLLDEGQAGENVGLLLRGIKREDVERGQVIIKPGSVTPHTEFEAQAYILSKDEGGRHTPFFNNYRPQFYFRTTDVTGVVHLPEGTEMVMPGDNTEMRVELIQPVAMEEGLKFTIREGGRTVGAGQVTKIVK
T3 sequence (P29542 whole entry A379V): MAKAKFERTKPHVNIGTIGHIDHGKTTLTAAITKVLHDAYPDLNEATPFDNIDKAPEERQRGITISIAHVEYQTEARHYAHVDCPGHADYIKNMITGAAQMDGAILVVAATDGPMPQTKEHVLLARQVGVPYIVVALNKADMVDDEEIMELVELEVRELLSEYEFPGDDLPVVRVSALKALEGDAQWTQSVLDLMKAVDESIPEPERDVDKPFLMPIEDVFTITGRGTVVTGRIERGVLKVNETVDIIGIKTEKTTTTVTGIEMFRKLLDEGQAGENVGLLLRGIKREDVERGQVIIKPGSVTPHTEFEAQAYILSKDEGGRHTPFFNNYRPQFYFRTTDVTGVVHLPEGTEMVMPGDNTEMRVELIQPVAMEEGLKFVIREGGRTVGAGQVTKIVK
T2 sequence (P29542 whole entry): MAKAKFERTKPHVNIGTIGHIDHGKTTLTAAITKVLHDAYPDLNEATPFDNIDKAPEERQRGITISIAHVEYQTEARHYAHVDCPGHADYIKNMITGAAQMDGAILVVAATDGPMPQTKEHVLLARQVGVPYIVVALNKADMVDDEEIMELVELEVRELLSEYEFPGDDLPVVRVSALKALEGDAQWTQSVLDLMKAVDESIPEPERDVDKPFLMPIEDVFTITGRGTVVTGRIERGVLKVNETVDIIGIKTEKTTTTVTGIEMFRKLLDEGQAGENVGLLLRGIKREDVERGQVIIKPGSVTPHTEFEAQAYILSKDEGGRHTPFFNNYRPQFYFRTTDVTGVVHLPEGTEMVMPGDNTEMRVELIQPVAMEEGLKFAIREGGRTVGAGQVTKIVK

`C/C=C\C=C\[C@@H]1O[C@](O)([C@H](CC)C(=O)NC/C=C/C=C(\C)[C@@H](OC)[C@H](C)[C@@H]2O[C@H](/C=C/C=C/C=C(\C)C(=O)c3c(O)cc[nH]c3=O)[C@H](O)[C@@H]2O)[C@H](O)[C@H](O)C1(C)C` [mocimycin, Mocimycin] was tested, and the “efficiency of ³H-phenylalanine incorporation compared to the parallel incubation without mocimycin” value (SrEF-Tu mutant A378T; [6]) was 80%, the “mocimycin concentration at a residual activity of 50% in the in vitro poly(phe) synthesis” value (SrEF-Tu mutant A378T; [7]) was 160 mg/L and the minimal inhibitory concentration (S. ramocissimus R1V [1]) was 750 µg/mL (≈ 941 µM). For the same compound, the minimal inhibitory concentration [2] was 150 µg/mL (≈ 188 µM), the “efficiency of ³H-phenylalanine incorporation compared to the mocimycin free reaction” value [3, 6] was no more than 20% and the “mocimycin concentration at a residual activity of 50% in the in vitro poly(phe) synthesis” value [3, 7] was 1.6 mg/L. The “efficiency of ³H-phenylalanine incorporation compared to the parallel incubation without mocimycin” value (SrEF-Tu mutant A378V; [6]) was 80%, the “mocimycin concentration at a residual activity of 50% in the in vitro poly(phe) synthesis” value (SrEF-Tu mutant A378V; [7]) was 160 mg/L and the “mocimycin concentration up to which spores were able to germinate and form colonies” value (S. ramocissimus R1V [4]; [8]) was no less than 0.75 g/L. The “Germination and growth of spores” value (S. ramocissimus R1V [4]; mocimycin 0.10 g/l) was “+++”, the “Germination and growth of spores” value (S. ramocissimus R1V [4]; mocimycin 0.20 g/l) was “+++” and the “Germination and growth of spores” value (S. ramocissimus R1V [4]; mocimycin 0.40 g/l) was “++”. For the same compound, the “Germination and growth of spores” value (S. ramocissimus R1V [4]; mocimycin 0.60 g/l) was “++”, the “Germination and growth of spores” value (S. ramocissimus R1V [4]; mocimycin 0.75 g/l) was “+” and the “Germination and growth of spores” value (S. ramocissimus R1V [4]; mocimycin 1.0 g/l) was “-”. The “mocimycin concentration above which no colonies appeared” value [5, 8] was “above 0.1 g/l”, the “Germination and growth of spores” value ([5]; mocimycin 0.10 g/l) was “+” and the “Germination and growth of spores” value ([5]; mocimycin 0.20 g/l) was “-”. The “Germination and growth of spores” value ([5]; mocimycin 0.40 g/l) was “-”, the “Germination and growth of spores” value ([5]; mocimycin 0.60 g/l) was “-” and the “Germination and growth of spores” value ([5]; mocimycin 0.75 g/l) was “-”. The “Germination and growth of spores” value ([5]; mocimycin 1.0 g/l) was “-”.
